ChEMBL document CHEMBL1955741, “Identification of fused bicyclic heterocycles as potent and selective 5-HT(2A) receptor antagonists for the treatment of insomnia” (Bioorg Med Chem Lett, 2012)
Values belong to the molecule of their own block, whether it stands above or below them. Activity calls are given as the source filed them. No cut-off for these calls is given here.

Assays:
[1] = biological target: 5-hydroxytryptamine receptor 2A (Homo sapiens, UniProt P28223)
Description: Displacement of [125I]-DOI from recombinant human 5HT2A receptor

[2] = biological target: T1, 5-hydroxytryptamine receptor 2C (Homo sapiens, UniProt P28335)
T1 sequence (P28335 whole entry): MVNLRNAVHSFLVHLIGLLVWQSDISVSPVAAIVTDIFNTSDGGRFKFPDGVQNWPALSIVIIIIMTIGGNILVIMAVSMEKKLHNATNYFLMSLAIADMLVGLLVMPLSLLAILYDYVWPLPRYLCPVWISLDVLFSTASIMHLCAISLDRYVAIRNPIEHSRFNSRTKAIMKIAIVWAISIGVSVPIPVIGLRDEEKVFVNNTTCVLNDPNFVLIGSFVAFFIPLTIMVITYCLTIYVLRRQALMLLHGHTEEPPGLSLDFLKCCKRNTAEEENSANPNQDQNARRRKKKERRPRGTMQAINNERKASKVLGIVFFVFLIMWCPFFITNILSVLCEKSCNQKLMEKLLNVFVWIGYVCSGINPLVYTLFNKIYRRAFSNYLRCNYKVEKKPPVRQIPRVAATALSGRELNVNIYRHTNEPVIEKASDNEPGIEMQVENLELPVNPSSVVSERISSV

[3] = biological target: T2, Alpha-2A adrenergic receptor (Homo sapiens) (UniProt P08913); assay: Binding affinity to adrenergic alpha 2 receptor at 10 uM
T2 sequence (whole entry): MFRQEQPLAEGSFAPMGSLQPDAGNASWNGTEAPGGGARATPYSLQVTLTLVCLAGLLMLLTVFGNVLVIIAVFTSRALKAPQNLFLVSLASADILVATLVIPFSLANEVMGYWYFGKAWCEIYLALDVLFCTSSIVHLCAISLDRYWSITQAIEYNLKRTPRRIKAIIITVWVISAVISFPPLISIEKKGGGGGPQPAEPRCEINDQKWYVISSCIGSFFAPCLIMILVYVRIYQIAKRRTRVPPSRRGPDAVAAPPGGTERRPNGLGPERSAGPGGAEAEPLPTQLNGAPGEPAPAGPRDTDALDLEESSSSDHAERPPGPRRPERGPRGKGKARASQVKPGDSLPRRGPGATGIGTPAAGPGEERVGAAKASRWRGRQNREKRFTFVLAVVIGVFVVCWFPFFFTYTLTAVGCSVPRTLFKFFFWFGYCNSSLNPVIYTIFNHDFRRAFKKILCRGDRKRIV

Rattus norvegicus [4] = assay: Total clearance in iv dosed rat; type: ADME, organism-based; conditions: in vivo
Cytochrome P450 2C19 = Cytochrome P450 2C19 (Homo sapiens, UniProt P33261); assay: Inhibition of […] in human liver microsomes; type: ADME, Microsome
Chain of Cytochrome P450 2C19 (P33261 whole entry): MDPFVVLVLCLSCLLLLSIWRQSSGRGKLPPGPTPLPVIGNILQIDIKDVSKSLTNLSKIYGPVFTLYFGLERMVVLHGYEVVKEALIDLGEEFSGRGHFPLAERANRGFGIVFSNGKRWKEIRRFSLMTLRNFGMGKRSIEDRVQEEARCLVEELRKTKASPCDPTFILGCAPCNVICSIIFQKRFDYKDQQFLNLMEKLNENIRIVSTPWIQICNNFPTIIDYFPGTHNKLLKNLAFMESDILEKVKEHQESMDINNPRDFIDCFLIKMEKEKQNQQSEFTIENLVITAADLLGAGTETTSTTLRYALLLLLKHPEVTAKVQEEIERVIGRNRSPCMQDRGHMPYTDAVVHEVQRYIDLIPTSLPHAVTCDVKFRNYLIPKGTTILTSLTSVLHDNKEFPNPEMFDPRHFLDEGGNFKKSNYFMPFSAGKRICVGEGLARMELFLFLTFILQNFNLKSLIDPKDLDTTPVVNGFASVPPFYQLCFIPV

Rattus norvegicus [5] = assay: Antiinsomnia activity in po dosed rat assessed as increase in non-rapid eye movement bout duration after 5 hrs; type: functional, organism-based
Rattus norvegicus [6] = assay: Oral bioavailability in rat; type: ADME, organism-based; conditions: in vivo
[7] = biological target: D(2) dopamine receptor (Homo sapiens) (UniProt P14416); assay: Binding affinity to dopamine receptor D2 at 10 uM
Chain of D(2) dopamine receptor (Homo sapiens) (P14416 whole entry): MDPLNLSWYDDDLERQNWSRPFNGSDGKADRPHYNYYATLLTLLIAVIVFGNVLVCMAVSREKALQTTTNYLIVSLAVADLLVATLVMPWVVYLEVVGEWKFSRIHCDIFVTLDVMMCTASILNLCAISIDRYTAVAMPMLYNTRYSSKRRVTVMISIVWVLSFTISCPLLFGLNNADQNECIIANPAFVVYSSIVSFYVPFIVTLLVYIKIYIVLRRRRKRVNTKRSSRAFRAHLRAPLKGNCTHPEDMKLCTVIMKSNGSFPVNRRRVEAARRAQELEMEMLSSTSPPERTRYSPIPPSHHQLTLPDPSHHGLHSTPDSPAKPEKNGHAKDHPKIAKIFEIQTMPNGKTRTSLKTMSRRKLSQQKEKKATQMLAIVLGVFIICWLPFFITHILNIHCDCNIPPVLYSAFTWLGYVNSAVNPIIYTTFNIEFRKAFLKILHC

Rattus norvegicus [8] = assay: Antiinsomnia activity in rat assessed as increase in delta power at 0.1 mg/kg, po after 1 hr; type: functional, organism-based; parameters: dose 0.1 mg/kg
Canis familiaris [9] = assay: Toxicity in telemetered dog model assessed as change in ECG measures upto 30 mg/kg; type: organism-based, Canis lupus familiaris; parameters: dose 30 mg/kg; conditions: in vivo
[10] = Cmax in rat at 3 mg/kg, po; type: ADME, organism-based; parameters: dose 3 mg/kg, route oral; conditions: in vivo
Cytochrome P450 3A4 = Cytochrome P450 3A4 (Homo sapiens, UniProt P08684); assay: Inhibition of CYP3A4 in human liver microsomes; type: ADME, Microsome
Chain of Cytochrome P450 3A4 (P08684 whole entry): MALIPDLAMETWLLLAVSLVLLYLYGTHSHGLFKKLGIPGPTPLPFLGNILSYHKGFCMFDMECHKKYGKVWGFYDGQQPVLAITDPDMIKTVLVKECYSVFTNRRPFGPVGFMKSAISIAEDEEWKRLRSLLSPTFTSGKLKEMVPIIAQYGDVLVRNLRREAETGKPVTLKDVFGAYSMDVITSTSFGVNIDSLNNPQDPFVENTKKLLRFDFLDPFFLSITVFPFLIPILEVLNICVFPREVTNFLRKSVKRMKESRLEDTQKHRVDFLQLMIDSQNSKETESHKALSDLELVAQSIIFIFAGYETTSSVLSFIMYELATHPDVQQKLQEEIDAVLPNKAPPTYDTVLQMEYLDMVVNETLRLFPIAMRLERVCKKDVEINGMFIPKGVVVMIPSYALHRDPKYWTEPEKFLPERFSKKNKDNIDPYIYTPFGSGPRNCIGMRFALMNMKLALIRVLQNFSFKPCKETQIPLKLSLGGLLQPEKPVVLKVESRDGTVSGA

[11] = biological target: T3, Alpha-1A adrenergic receptor (Homo sapiens) (UniProt P35348); assay: Binding affinity to adrenergic alpha 1 receptor at 10 uM
T3 sequence (whole entry): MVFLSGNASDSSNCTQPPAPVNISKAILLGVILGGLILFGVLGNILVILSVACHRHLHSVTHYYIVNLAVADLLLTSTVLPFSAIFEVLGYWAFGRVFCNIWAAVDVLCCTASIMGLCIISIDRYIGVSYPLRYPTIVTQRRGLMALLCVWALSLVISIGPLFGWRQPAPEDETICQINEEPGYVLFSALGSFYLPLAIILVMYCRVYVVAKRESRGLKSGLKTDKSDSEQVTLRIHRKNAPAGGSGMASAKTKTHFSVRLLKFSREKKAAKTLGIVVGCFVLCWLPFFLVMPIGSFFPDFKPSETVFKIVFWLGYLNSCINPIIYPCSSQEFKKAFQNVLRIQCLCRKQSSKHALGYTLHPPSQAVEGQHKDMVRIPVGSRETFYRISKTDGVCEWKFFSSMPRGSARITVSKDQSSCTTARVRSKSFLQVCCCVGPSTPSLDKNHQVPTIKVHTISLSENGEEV

[12] = biological target: T4, D(4) dopamine receptor (Homo sapiens) (UniProt P21917); assay: Binding affinity to dopamine receptor D4 at 10 uM
T4 sequence (whole entry): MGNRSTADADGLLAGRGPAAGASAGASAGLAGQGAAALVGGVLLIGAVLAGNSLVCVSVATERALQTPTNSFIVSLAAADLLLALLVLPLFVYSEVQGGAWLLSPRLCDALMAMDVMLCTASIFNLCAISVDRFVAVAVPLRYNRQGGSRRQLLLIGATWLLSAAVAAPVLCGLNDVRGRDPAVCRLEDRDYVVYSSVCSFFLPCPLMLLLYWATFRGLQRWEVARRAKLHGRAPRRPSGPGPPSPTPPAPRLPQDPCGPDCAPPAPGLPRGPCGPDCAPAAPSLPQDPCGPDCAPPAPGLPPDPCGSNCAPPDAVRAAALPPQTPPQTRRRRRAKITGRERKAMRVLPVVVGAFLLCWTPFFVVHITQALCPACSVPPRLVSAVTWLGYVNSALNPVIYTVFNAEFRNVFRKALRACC

Rattus norvegicus [13] = assay: Volume of distribution at steady state in […] rat; type: ADME, organism-based; conditions: in vivo
[14] = Half life in po dosed rat; type: ADME, organism-based; conditions: in vivo
Rattus norvegicus [15] = assay: Antiinsomnia activity in rat assessed as increase in delta power at 0.1 mg/kg, po after 3 to 4 hrs; type: functional, organism-based; parameters: dose 0.1 mg/kg
[16] = Drug uptake in rat brain at 0.3 mg/kg after 0.75 hrs; type: ADME, organism-based; parameters: dose 0.3 mg/kg; conditions: read-out: Drug uptake
[17] = Plasma protein binding in human; type: ADME, cell-free; conditions: read-out: PPB (converted)
[18] = Ratio of drug level in brain to plasma in rat at 0.3 mg/kg; type: ADME, organism-based; parameters: dose 0.3 mg/kg; conditions: read-out: BPR
Rattus norvegicus [19] = assay: Antiinsomnia activity in po dosed rat assessed as increase in sleep consolidation after 5 hrs; type: functional, organism-based
Rattus norvegicus [20] = assay: Inhibition of DOI-induced hypolocomotion in rat drug coadministered with DOI 10 mins prior testing; type: functional
Cytochrome P450 2C9 = Cytochrome P450 2C9 (Homo sapiens, UniProt P11712); assay: Inhibition of CYP2C9 in human liver microsomes; type: ADME, Microsome
Chain of Cytochrome P450 2C9 (P11712 whole entry): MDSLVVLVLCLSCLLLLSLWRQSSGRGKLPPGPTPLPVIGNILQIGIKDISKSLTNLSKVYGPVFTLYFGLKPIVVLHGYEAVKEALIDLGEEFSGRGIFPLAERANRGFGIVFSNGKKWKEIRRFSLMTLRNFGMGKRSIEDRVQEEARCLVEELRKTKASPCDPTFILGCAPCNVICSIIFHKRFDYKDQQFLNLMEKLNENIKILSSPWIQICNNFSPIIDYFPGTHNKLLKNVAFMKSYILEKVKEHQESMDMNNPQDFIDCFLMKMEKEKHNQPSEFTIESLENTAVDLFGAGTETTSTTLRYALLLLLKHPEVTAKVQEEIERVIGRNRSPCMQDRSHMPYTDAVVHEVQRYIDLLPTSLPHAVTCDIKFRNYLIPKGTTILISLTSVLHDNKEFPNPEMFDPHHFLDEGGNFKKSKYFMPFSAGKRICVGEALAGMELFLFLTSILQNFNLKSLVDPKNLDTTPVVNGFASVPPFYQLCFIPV

Cytochrome P450 1A2 = biological target: T5, Cytochrome P450 1A2 (Homo sapiens, UniProt P05177); assay: Inhibition of CYP1A2 in human liver microsomes; type: ADME, Microsome
T5 sequence (P05177 whole entry): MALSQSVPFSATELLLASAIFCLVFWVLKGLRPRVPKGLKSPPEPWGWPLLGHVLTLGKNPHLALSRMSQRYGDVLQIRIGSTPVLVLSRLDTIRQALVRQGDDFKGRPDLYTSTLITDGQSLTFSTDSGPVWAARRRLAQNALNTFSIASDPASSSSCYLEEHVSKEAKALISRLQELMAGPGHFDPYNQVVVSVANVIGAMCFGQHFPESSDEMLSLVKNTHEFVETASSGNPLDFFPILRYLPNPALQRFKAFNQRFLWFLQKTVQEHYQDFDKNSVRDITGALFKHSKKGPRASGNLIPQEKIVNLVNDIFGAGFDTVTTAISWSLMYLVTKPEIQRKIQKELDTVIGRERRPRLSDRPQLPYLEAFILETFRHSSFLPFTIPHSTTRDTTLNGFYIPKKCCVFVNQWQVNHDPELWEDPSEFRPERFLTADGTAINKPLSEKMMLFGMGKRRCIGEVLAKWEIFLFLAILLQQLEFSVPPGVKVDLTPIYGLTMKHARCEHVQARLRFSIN

Rattus norvegicus [21] = assay: Antiinsomnia activity in po dosed rat assessed as decrease in non-rapid eye movement bout number after 5 hrs; type: functional, organism-based
Rattus norvegicus [22] = assay: AUClast in rat at 3 mg/kg, po; type: ADME, organism-based, Plasma; parameters: time 0 - last, dose 3 mg/kg, route oral; conditions: in vivo
[23] = Plasma concentration in rat at 0.3 mg/kg after 0.75 hrs; type: ADME, organism-based; parameters: dose 0.3 mg/kg
[24] = biological target: D(1B) dopamine receptor (Homo sapiens) (UniProt P21918); assay: Binding affinity to dopamine receptor D5 at 10 uM
Chain of D(1B) dopamine receptor (Homo sapiens) (P21918 whole entry): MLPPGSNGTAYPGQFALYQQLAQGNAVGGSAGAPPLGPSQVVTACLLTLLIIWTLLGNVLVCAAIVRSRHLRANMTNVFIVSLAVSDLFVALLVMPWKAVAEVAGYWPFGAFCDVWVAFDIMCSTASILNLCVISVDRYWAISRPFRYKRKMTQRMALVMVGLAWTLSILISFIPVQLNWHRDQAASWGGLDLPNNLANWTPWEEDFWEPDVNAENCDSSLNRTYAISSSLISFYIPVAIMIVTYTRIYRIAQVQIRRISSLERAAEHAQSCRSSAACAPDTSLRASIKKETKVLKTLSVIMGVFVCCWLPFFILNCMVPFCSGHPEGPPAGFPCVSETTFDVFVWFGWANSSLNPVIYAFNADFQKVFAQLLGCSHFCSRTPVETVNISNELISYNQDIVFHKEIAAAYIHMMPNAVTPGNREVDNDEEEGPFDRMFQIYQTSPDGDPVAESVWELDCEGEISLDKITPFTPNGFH

Canis familiaris [25] = assay: Toxicity in telemetered dog model assessed as change in hemodynamic measures upto 30 mg/kg; type: organism-based, Canis lupus familiaris; parameters: dose 30 mg/kg; conditions: in vivo
[26] = Half life in rat liver microsomes; type: ADME, Microsome
Cytochrome P450 2D6 = Cytochrome P450 2D6 (Homo sapiens, UniProt P10635); assay: Inhibition of CYP2D6 in human liver microsomes; type: ADME, Microsome
Chain of Cytochrome P450 2D6 (P10635 whole entry): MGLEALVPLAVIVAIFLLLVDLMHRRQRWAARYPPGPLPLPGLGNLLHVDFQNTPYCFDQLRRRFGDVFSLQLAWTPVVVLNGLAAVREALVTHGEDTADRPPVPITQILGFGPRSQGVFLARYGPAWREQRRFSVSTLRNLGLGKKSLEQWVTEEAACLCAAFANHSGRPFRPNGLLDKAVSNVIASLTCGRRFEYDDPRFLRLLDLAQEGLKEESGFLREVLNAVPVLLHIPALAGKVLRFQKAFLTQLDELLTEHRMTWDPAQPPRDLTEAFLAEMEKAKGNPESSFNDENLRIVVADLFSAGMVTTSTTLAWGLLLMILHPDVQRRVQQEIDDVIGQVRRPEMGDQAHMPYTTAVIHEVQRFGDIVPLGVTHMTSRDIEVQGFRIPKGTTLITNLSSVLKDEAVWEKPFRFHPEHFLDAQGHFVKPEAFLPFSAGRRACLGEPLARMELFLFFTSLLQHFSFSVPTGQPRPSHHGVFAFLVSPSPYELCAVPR

[27] = biological target: D(3) dopamine receptor (Homo sapiens) (UniProt P35462); assay: Binding affinity to dopamine receptor D3 at 10 uM
Chain of D(3) dopamine receptor (Homo sapiens) (P35462 whole entry): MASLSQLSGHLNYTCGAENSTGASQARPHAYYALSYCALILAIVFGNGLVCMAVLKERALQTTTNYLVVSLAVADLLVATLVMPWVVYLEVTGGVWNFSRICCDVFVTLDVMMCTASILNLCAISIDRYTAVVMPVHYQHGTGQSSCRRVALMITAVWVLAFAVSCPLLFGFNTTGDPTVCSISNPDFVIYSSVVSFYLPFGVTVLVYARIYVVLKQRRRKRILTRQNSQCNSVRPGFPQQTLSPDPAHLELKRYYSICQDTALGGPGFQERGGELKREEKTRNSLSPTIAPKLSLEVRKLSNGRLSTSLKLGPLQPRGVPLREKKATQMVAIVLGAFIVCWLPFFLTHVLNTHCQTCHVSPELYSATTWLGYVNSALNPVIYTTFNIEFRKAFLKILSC

[28] = biological target: D(1A) dopamine receptor (Homo sapiens) (UniProt P21728); assay: Binding affinity to dopamine receptor D1 at 10 uM
Chain of D(1A) dopamine receptor (Homo sapiens) (P21728 whole entry): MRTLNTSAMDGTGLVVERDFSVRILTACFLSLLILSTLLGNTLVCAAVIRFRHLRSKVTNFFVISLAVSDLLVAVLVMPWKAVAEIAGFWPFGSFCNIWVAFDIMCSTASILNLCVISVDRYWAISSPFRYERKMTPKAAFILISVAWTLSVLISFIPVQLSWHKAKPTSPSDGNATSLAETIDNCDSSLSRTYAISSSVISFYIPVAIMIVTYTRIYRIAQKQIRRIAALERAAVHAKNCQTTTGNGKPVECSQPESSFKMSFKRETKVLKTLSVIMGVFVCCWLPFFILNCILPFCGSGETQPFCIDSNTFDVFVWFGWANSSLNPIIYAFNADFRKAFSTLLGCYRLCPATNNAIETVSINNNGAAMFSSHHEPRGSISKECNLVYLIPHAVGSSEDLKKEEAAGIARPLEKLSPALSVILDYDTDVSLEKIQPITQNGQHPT

Rattus norvegicus [29] = assay: Inhibition of DOI-induced hypolocomotion in rat at 1 mg/kg coadministered with DOI 10 mins prior testing; type: functional, organism-based; parameters: dose 1 mg/kg

Chain of 5-hydroxytryptamine receptor 2A (P28223 whole entry): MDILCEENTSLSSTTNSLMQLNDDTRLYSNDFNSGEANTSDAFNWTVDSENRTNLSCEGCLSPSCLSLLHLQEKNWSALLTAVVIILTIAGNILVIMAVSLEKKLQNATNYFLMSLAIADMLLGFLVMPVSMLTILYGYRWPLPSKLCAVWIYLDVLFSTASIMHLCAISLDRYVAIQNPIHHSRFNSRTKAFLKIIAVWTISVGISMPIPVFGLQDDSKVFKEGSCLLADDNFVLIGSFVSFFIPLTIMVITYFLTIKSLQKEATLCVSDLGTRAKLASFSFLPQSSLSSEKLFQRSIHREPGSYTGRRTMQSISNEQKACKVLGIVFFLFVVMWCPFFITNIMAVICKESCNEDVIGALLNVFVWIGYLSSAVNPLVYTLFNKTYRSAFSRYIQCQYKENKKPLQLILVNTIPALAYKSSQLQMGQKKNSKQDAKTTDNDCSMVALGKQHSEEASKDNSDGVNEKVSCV

Ki [1]: 1.8 nM
Ki [2]: 246 nM
SMILES: O=C(c1cnn2ccccc12)N1CCN(CCc2ccc(F)cc2F)CC1

Ki [1]: 18 nM
Ki [2]: 2880 nM
SMILES: O=C(c1cnn2c1CCCC2)N1CCN(CCc2ccc(F)cc2F)CC1

Ki [1]: 5.9 nM
Ki [2]: 575 nM
SMILES: O=C(c1cnn2cc(Cl)ccc12)N1CCN(CCc2ccc(F)cc2F)CC1

Ki [1]: 3.6 nM
Ki [2]: 153 nM
SMILES: Cc1cc(C)n2ccnc2c1C(=O)N1CCN(CCc2ccc(F)cc2F)CC1

Activity [3]: < 50%
clearance (Rattus norvegicus [4]): 58.3 mL/min/kg
IC50 (Cytochrome P450 2C19): > 40000 nM
bioavailability (Rattus norvegicus [6]): 47%
Activity [7]: < 50%
Cmax [10]: 943 ng/mL
IC50 (Cytochrome P450 3A4): > 40000 nM
Activity [11]: < 50%
Activity [12]: < 50%
Vdss (Rattus norvegicus [13]): 1.7 L/kg
half-life [14]: 30 min
concentration at 0.75 h [16]: 14.5 ng/mL
fraction unbound [17]: 0.326
Kp [18]: 1.32
IC50 (Cytochrome P450 2C9): > 40000 nM
IC50 (Cytochrome P450 1A2): > 40000 nM
AUClast (Rattus norvegicus [22]): 440 ng·h/mL
Ki [2]: 524 nM
concentration at 0.75 h [23]: 11 ng/mL
Activity [24]: < 50%
half-life [26]: 16 min
IC50 (Cytochrome P450 2D6): > 40000 nM
Activity [27]: < 50%
Activity [28]: < 50%
SMILES: O=C(c1cccn2ccnc12)N1CCN(CCc2ccc(F)cc2F)CC1
Activity (Rattus norvegicus [5]): Dose-dependent effect
Activity (Rattus norvegicus [8]): Active
Activity (Canis familiaris [9]): Non-toxic
Activity (Rattus norvegicus [15]): Active
Activity (Rattus norvegicus [19]): Dose-dependent effect
ED50 (Rattus norvegicus [20]): 0.3 mg/kg
Activity (Rattus norvegicus [21]): Dose-dependent effect
Activity (Canis familiaris [25]): Non-toxic

Ki [1]: 0.4 nM
Ki [2]: 194 nM
SMILES: O=C(c1cccc2ccnn12)N1CCN(CCc2ccc(F)cc2F)CC1

Ki [1]: 1.9 nM
Ki [2]: 581 nM
SMILES: O=C(c1nc2ccccn2c1Br)N1CCN(CCc2ccc(F)cc2F)CC1

Ki [1]: 5.7 nM
Ki [2]: 467 nM
SMILES: O=C(c1cc2ccccn2n1)N1CCN(CCc2ccc(F)cc2F)CC1

Ki [1]: 5.6 nM
Ki [2]: 1360 nM
SMILES: O=C(c1cc2ncccn2n1)N1CCN(CCc2ccc(F)cc2F)CC1

SMILES: Cn1cc(Br)c(C(=O)N2CCN(CC(=O)c3ccc(F)cc3)CC2)n1
Activity (Rattus norvegicus [29]): Active

Ki [1]: 1.7 nM
Ki [2]: 739 nM
SMILES: O=C(c1cnc2ccccn12)N1CCN(CCc2ccc(F)cc2F)CC1

Ki [1]: 1.4 nM
Ki [2]: 152 nM
SMILES: Nc1cccc2nc(C(=O)N3CCN(CCc4ccc(F)cc4F)CC3)cn12
